Experimental data as given in US12090164B2, “Genotype-agnostic rescue of cystic fibrosis with small molecule bicarbonate channels” (The Board of Trustees of the University of Illinois, priority 2017, dated 2024).
Entries after “also recorded” stand apart in the source; their conditions may differ.

Assays:
[1] = system: CuFi-4 (G551D/ΔF508) epithelia; test: ASL pH in cultured CF airway epithelia (SNARF-dextran); type: cell-based, human
Protocol: (§1) Small diameter NuLi, CuFi, and primary cultured epithelia were used for this experiment (0.33 cm^2). The ratiometric pH indicator SNARF-conjugated dextran (Molecular Probes) was used to measure ASL pH. SNARF powder was suspended via sonication in perfluorocarbon (FC-72, Sigma) and distributed onto the apical surface. ASL pH was measured 2 hr later (3, 4, 25). SNARF was excited at 488 nm and emission was recorded at 580 nm and 640 nm using a Zeiss LSM 800 microscope at 40× water immersion for cell line cultures and a Zeiss LSM 510 microscope for primary cultures. To generate a standard curve for pH determination, SNARF was dissolved in colorless pH standards and fluorescence ratios were converted to pH.
(§2) Agents tested in this assay were first lyophilized into powder and then suspended in the appropriate volume of perfluorocarbon (FC-72, Sigma) and sonicated for 1 minute to suspend. AmBisome should not be sonicated; instead, the fine powder was suspended by vortexing.
(§3) In all experiments, ASL pH of compound-treated epithelia was measured compared the results to vehicle-treated epithelia.
(§4) For apical AmB administration, cultured airway epithelia were incubated for 30 min-48 hrs at 37° C. before measurement of ASL pH. For AmB-cholesterol complex and C35deOAmB administration, cultured airway epithelia were incubated for 48 hrs at 37° C. before measurement of ASL pH. To test the effect of […] ATPase inhibition, AmB was administered 47 hours prior to 10 mM ouabain addition, and cultured airway epithelia were incubated for an additional 1 hr at 37° C. before measurement of ASL pH. For 10 μM ivacaftor/10 μM forskolin administration, cultured airway epithelia were incubated for 2 hrs at 37° C. before measurement of ASL pH (25). For basolateral AmB administration, a 2 mM stock of AmB in DMSO was diluted 1000-fold to a final concentration of 2 μM in USG media. The basolateral media of cultured airway epithelia was replaced with the AmB-containing USG media and incubated for 48 hrs at 37° C. before measurement of ASL pH.

[2] = system: CuFi-1 (ΔF508/ΔF508) epithelia; test: as above; type: cell-based, human
Protocol: as §1, §2, §3, §4

[3] = system: ASL of primary CF epithelia; Staphylococcus aureus killed; test: ASL antibacterial activity (S. aureus-coated gold grids); type: cell-based, human; details: 2 μM, 48 h
Protocol: Staphylococcus aureus-coated gold grids were used to measure antibacterial activity of airway epithelial cultures (3, 4). Small diameter primary cultured epithelia were used for this experiment (0.33 cm^2). Bacteria-coated gold TEM grids were placed onto the apical surface of airway epithelia for 1 min after 48 hours of perfluorocarbon (FC-72, Sigma), 2 μM AmB, or 2 μM C35deOAmB treatment. As controls, bacteria-coated grids were also placed in saline or AmB in FC-72 laid over saline to simulate the administration method for 1 minute. After removal, bacteria on the grids were assessed for viability using Live/Dead BacLight Bacterial Viability assay (Invitrogen). Viability was determined in 4-6 fields to determine the percentages of dead bacteria.

[4] = system: primary cultured airway epithelia derived from humans with CF; test: ASL pH in primary cultured airway epithelia from CF donors; type: cell-based, human
Protocol: Airway epithelial cells were obtained from human trachea and bronchi of CF and non-CF specimens obtained from the Iowa Donor Network, either as post-mortem specimens or from tissue deemed not fit for transplant. Studies were approved by the University of Iowa Institutional Review Board. After pronase enzymatic digestion, cells were seeded onto collagen-coated semi-permeable membranes (0.33-1.12 cm^2, Corning 3470 polyester, 3460 polyester, 3413 polycarbonate) and grown at an air-liquid interface (52). Airway epithelial cell cultures were analyzed after they had differentiated and at least 14 days post-seeding.
as §1, §2, §3, §4

[5] = 13C NMR H13CO3- efflux from liposomes; type: biochemical; details: 1:1,000 AmB:lipid, vs DMSO or water vehicle
[6] = in vivo; cited from earlier work
[7] = system: CuFi-1 epithelia; test: Lactate dehydrogenase (LDH) cytotoxicity assay; type: cell-based, human; details: single AmB treatment, increasing time periods
Protocol: Small diameter CuFi-1 cultured epithelia were used for this experiment (0.33 cm^2). An LDH Cytotoxicity Assay Kit (Cayman Chemical) was used to determine if AmB is toxic to CuFi-1 airway epithelia. Prior to treatment, media was removed from the basolateral side of epithelia and replaced with 500 µL of fresh USG media. Cultured epithelia were then treated with FC-72 vehicle, 2 and 50 μM AmB administered in perfluorocarbon (FC-72, Sigma) for 48 hours, 7 days, or 28 days. 48 hours prior to the end of each experiment time frame, basolateral media was changed again and […] of 10% Triton X-100 solution was added to the apical surface to elicit maximum release. On the day of the experiment, assay reagents were prepared according to kit instructions and 500 µL of USG media was added to three empty wells in a 24-well plate for background control. Culture inserts were removed from the wells and 250 µL of LDH Reaction Solution was added to each well. The plate was then gently shaken on an orbital shaker for 30 minutes at 37° C. Absorbance was read at 490 nm using a plate reader. % cytotoxicity was calculated as follows: […]

C[C@@H]1[C@H](O)[C@@H](C)/C=C/C=C/C=C/C=C/C=C/C=C/C=C/[C@H](O[C@@H]2O[C@H](C)[C@@H](O)[C@H](N)[C@@H]2O)C[C@@H]2O[C@](O)(C[C@@H](O)C[C@@H](O)[C@H](O)CC[C@@H](O)C[C@@H](O)CC(=O)O[C@H]1C)C[C@H](O)[C@H]2C(=O)O [AmB, amphotericin B]
increase in ASL pH ([1]; AmB 2 μM, ivacaftor/forskolin 10 μM): ~0.2 unit | ASL pH ([1]; apical AmB 2 μM 48 h, ivacaftor/forskolin 10 μM 2 h): increase ASL pH; also recorded: increased the ASL pH; also recorded: increased ASL pH and H^14CO3^− secretion | ASL pH, basolateral addition of AmB ([2]; AmB 2 μM basolateral, 48 h): an increase in ASL pH was not observed; also recorded: No increase in pH was observed; also recorded: did not raise ASL pH or increase H^14CO3^− secretion | ASL pH, apical addition ([2]; AmB or C35deOAmB 2 μM, ivacaftor/forskolin 10 μM, 2 h, vs vehicle): increases ASL pH relative to an untreated CuFi-1 control over 2 hours; also recorded: progressive increase in pH over 2 hours; also recorded: increased the ASL pH; also recorded: increased both; also recorded: progressively increased ASL pH over 2 hours | time for which the increase in ASL pH is sustained ([2]; apical AmB 2 μM): at least 48 hours | AmB concentration at which increase in ASL pH reaches a maximum ([2]; apical addition): 2 μM | concentration dependence of ASL pH increase ([2]; increasing concentrations up to 100 μM AmB): increases ASL pH in CuFi-1 monolayers at low but not at high concentrations; also recorded: decreases at higher concentrations; also recorded: ASL pH increased and then fell with progressively increasing concentrations of AmB | ASL antibacterial activity (% of S. aureus killed after exposure to ASL) [3]: increased antibacterial activity for a diverse range of patient genotypes; also recorded: nearly doubled ASL bacterial killing; also recorded: restores ASL pH and antibacterial activity | ASL pH, apical addition ([4]; 9 donors, 2 μM, 48 h): caused an increase in ASL pH across a wide range of different genotypes; also recorded: increased ASL pH; also recorded: restores ASL pH | ASL pH, basolateral addition of AmB ([4]; AmB 2 μM basolateral, 48 h): did not increase ASL pH | average increase in ASL pH ([4]; apical AmB 2 μM): 0.2 pH units | time for which the increase in ASL pH is sustained ([4]; apical AmB 2 μM): at least 48 hours | H^13CO3^− efflux from liposomes [5]: AmB is able to facilitate transmembrane bicarbonate efflux; also recorded: Robust and rapid release; also recorded: caused H^13CO3^− efflux; also recorded: AmB is able to facilitate HCO3^− efflux | toxicity to humans [6]: significant toxicity to humans | cytotoxicity (LDH release, percent of total lysis by Triton X) [7]: did not cause increased cytotoxicity as compared to vehicle
